# Test results taken from PubChem BioAssay AID1918936 (Molecular Pharmacology Branch, DTP, NCI, 2023).
# Several values for one entry are separate records, joined by “and”; a condition that tells them apart may be missing. Identical values can stand only once.
# Test system: 349418-098-R-PDC complex spheroid viability
# Assay: Anticancer human tumor 349418-098-R-PDC patient-derived lung adenocarcinoma cell line growth inhibition
# Conditions: for viability, T/C: stronger effect = lower value
# Procedure, shortened: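 Complex spheroids of tumor cells with HUVEC and human MSCs, exposed to iadademstat combined with other agents. Each agent tested in half-log steps from near clinical Cmax (else 10 microM top), DMSO ≤0.25%.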
# [1] = curve of first compound, second compound 0.1 µM
# [2] = curve of first compound, second compound 0.316 µM
# [3] = curve of first compound, second compound 1 µM
# [4] = curve of first compound, second compound 3.16 µM
# [5] = curve of first compound, second compound 10 µM
# [6] = second compound 0.1 µM, first compound 0.0316 µM
# [7] = second compound 0.1 µM, first compound 0.1 µM
# [8] = second compound 0.316 µM, first compound 0.0316 µM
# [9] = second compound 0.316 µM, first compound 0.1 µM
# [10] = second compound 1 µM, first compound 0.0316 µM
# [11] = second compound 1 µM, first compound 0.1 µM
# [12] = second compound 3.16 µM, first compound 0.0316 µM
# [13] = second compound 3.16 µM, first compound 0.1 µM
# [14] = second compound 10 µM, first compound 0.0316 µM
# [15] = second compound 10 µM, first compound 0.1 µM
# [16] = second compound 0.1 µM, first compound 0.316 µM
# [17] = second compound 0.1 µM, first compound 1 µM
# [18] = second compound 0.1 µM, first compound 3.16 µM
# [19] = second compound 0.1 µM, first compound 10 µM
# [20] = second compound 0.316 µM, first compound 0.316 µM
# [21] = second compound 0.316 µM, first compound 1 µM
# [22] = second compound 0.316 µM, first compound 3.16 µM
# [23] = second compound 0.316 µM, first compound 10 µM
# [24] = second compound 1 µM, first compound 0.316 µM
# [25] = second compound 1 µM, first compound 1 µM
# [26] = second compound 1 µM, first compound 3.16 µM
# [27] = second compound 1 µM, first compound 10 µM
# [28] = second compound 3.16 µM, first compound 0.316 µM
# [29] = second compound 3.16 µM, first compound 1 µM
# [30] = second compound 3.16 µM, first compound 3.16 µM
# [31] = second compound 3.16 µM, first compound 10 µM
# [32] = second compound 10 µM, first compound 0.316 µM
# [33] = second compound 10 µM, first compound 1 µM
# [34] = second compound 10 µM, first compound 3.16 µM
# [35] = second compound 10 µM, first compound 10 µM
# 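Also: spheroids exposed to agents for seven days before readout.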
# 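For viability, T/C in this document: 100% = DMSO vehicle control wells.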
compound,measurement,setting,value
CC(C)CC(NC(=O)C(Cc1ccccc1)NC(=O)c1cnccn1)B(O)O (configuration not stated) + NC1CC1c1ccc(-c2cccc(O)c2)cc1,IC50,[1],< 0.316 nM
same,IC50,[2],< 0.316 nM
same,IC50,[3],< 0.316 nM
same,IC50,[4],< 0.316 nM
same,IC50,[5],< 0.316 nM
same,"viability, T/C","second compound 0.1 µM, first compound 0.000316 µM",2.67%
same,"viability, T/C","second compound 0.1 µM, first compound 0.001 µM",1.51%
same,"viability, T/C","second compound 0.1 µM, first compound 0.00316 µM",1.31%
same,"viability, T/C","second compound 0.1 µM, first compound 0.01 µM",0.5%
same,"viability, T/C",[6],0.51%
same,"viability, T/C",[7],0.69%
same,"viability, T/C","second compound 0.316 µM, first compound 0.000316 µM",1.86%
same,"viability, T/C","second compound 0.316 µM, first compound 0.001 µM",1.09%
same,"viability, T/C","second compound 0.316 µM, first compound 0.00316 µM",0.81%
same,"viability, T/C","second compound 0.316 µM, first compound 0.01 µM",0.41%
same,"viability, T/C",[8],0.45%
same,"viability, T/C",[9],0.34%
same,"viability, T/C","second compound 1 µM, first compound 0.000316 µM",1.69%
same,"viability, T/C","second compound 1 µM, first compound 0.001 µM",1.07%
same,"viability, T/C","second compound 1 µM, first compound 0.00316 µM",0.72%
same,"viability, T/C","second compound 1 µM, first compound 0.01 µM",0.42%
same,"viability, T/C",[10],0.29%
same,"viability, T/C",[11],0.53%
same,"viability, T/C","second compound 3.16 µM, first compound 0.000316 µM",1.62%
same,"viability, T/C","second compound 3.16 µM, first compound 0.001 µM",0.92%
same,"viability, T/C","second compound 3.16 µM, first compound 0.00316 µM",0.86%
same,"viability, T/C","second compound 3.16 µM, first compound 0.01 µM",1.06%
same,"viability, T/C",[12],0.37%
same,"viability, T/C",[13],0.41%
same,"viability, T/C","second compound 10 µM, first compound 0.000316 µM",0.84%
same,"viability, T/C","second compound 10 µM, first compound 0.001 µM",0.41%
same,"viability, T/C","second compound 10 µM, first compound 0.00316 µM",0.68%
same,"viability, T/C","second compound 10 µM, first compound 0.01 µM",0.31%
same,"viability, T/C",[14],0.14%
same,"viability, T/C",[15],0.17%
O=C(c1cc(Cc2n[nH]c(=O)c3ccccc23)ccc1F)N1CCN(C(=O)C2CC2)CC1 + NC1CC1c1ccc(-c2cccc(O)c2)cc1,IC50,[1],8910 nM
same,IC50,[2],8220 nM
same,IC50,[3],8040 nM
same,IC50,[4],> 10000 nM
same,IC50,[5],3190 nM
same,"viability, T/C",[6],106%
same,"viability, T/C",[7],108%
same,"viability, T/C",[16],99.3%
same,"viability, T/C",[17],99.3%
same,"viability, T/C",[18],86%
same,"viability, T/C",[19],45.5%
same,"viability, T/C",[8],111%
same,"viability, T/C",[9],105%
same,"viability, T/C",[20],103%
same,"viability, T/C",[21],98.5%
same,"viability, T/C",[22],77.6%
same,"viability, T/C",[23],43.9%
same,"viability, T/C",[10],116%
same,"viability, T/C",[11],106%
same,"viability, T/C",[24],105%
same,"viability, T/C",[25],104%
same,"viability, T/C",[26],69.1%
same,"viability, T/C",[27],45.5%
same,"viability, T/C",[12],116%
same,"viability, T/C",[13],111%
same,"viability, T/C",[28],101%
same,"viability, T/C",[29],105%
same,"viability, T/C",[30],75.5%
same,"viability, T/C",[31],52.3%
same,"viability, T/C",[14],97.1%
same,"viability, T/C",[15],90.3%
same,"viability, T/C",[32],75.2%
same,"viability, T/C",[33],67%
same,"viability, T/C",[34],49.9%
same,"viability, T/C",[35],33.6%
CC1COCCN1c1cc(C2(S(C)(=N)=O)CC2)nc(-c2ccnc3[nH]ccc23)n1 (configuration not stated) + NC1CCC(NC2CC2c2ccccc2)CC1,IC50,[1],371 nM
same,IC50,[2],508 nM
same,IC50,[3],487 nM
same,IC50,[4],361 nM
same,IC50,[5],433 nM
same,"viability, T/C",[6],115%
same,"viability, T/C",[7],115%
same,"viability, T/C",[16],55.5%
same,"viability, T/C",[17],16.1%
same,"viability, T/C",[18],11%
same,"viability, T/C",[19],8.02%
same,"viability, T/C",[8],120%
same,"viability, T/C",[9],101%
same,"viability, T/C",[20],72.5%
same,"viability, T/C",[21],19.6%
same,"viability, T/C",[22],9.52%
same,"viability, T/C",[23],8.34%
same,"viability, T/C",[10],114%
same,"viability, T/C",[11],104%
same,"viability, T/C",[24],68.6%
same,"viability, T/C",[25],19.2%
same,"viability, T/C",[26],10.2%
same,"viability, T/C",[27],7.6%
same,"viability, T/C",[12],116%
same,"viability, T/C",[13],113%
same,"viability, T/C",[28],53.6%
same,"viability, T/C",[29],18.1%
same,"viability, T/C",[30],10.3%
same,"viability, T/C",[31],7.61%
same,"viability, T/C",[14],107%
same,"viability, T/C",[15],87.3%
same,"viability, T/C",[32],65.7%
same,"viability, T/C",[33],15.8%
same,"viability, T/C",[34],9.23%
same,"viability, T/C",[35],5.82%
NS(=O)(=O)OCC1CC(n2ccc3c(NC4CCc5ccccc54)ncnc32)CC1O (configuration not stated),"viability, T/C",compound 0.00949 µM,97.7% and 104%
same,"viability, T/C",compound 0.03 µM,98% and 68.5%
same,"viability, T/C",compound 0.0949 µM,33.6% and 29.1%
same,"viability, T/C",compound 0.3 µM,18.3% and 11%
same,"viability, T/C",compound 0.949 µM,7.34% and 5.1%
same,"viability, T/C",compound 3 µM,4.71% and 4.35%
same,IC50,curve of compound,70.6 nM and 51.6 nM
